# Assays:
# [1] = molecular target: Uracil-DNA glycosylase (Homo sapiens) (UniProt P13051);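 note: UNG excision on a quenched double-stranded DNA oligo probe, with APE1 added for strand incision and turnover, read as fluorescence at 594 nm as strands separate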
# Description: Inhibition of UNG by quantifying inhibition of UNG-mediated cleavage and dissociation of quenched duplex DNA oligonucleotides, measured as fluorescence at 594 nm. To generate a functional strand incision and increase turn-over this assay is coupled to APE1.
# [2] = molecular target: Endonuclease 8-like 1 (Homo sapiens) (UniProt Q96FI4);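 note: fluorescence at 594 nm from quenched duplex DNA oligonucleotides released by NEIL1 cleavage and strand separation, reported as reduction of this enzyme activity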
# Chain of Endonuclease 8-like 1 (Homo sapiens) (Q96FI4 whole entry): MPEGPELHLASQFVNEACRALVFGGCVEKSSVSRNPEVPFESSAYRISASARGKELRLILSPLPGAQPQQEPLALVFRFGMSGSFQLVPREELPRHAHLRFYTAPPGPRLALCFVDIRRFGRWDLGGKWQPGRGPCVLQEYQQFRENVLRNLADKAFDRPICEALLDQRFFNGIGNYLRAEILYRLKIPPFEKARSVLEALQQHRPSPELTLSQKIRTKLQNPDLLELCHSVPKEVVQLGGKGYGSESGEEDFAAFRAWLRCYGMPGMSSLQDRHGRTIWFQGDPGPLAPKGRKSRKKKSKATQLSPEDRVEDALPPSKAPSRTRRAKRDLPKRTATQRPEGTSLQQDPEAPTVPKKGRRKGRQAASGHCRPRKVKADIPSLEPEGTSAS
# Description: Inhibition of NEIL1 by quantifying inhibition of NEIL1-mediated cleavage and dissociation of quenched duplex DNA oligonucleotides, measured as fluorescence at 594 nm.
# [3] = molecular target: T1, Single-strand selective monofunctional uracil DNA glycosylase (Homo sapiens) (UniProt Q53HV7); conditions: Hit No;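 note: enzymatic SMUG1 assay coupled with APE1, reading fluorescence at 594 nm released when a quenched double-stranded DNA oligonucleotide substrate is cleaved and separated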
# T1 sequence (whole entry): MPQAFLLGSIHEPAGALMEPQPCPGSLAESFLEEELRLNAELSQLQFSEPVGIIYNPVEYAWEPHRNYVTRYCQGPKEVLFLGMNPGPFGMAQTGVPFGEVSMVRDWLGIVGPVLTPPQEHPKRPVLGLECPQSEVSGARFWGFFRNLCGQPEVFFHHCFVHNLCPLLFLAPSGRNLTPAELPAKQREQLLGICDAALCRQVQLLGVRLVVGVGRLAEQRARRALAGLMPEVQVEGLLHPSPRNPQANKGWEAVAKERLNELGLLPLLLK
# Description: Inhibition of SMUG1 by quantifying inhibition of SMUG1-mediated cleavage and dissociation of quenched duplex DNA oligonucleotides, measured as fluorescence at 594 nm. To generate a functional strand incision and increase turn-over this assay is coupled to APE1.
# [4] = molecular target: T2, Endonuclease III-like protein 1 (Homo sapiens) (UniProt P78549);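 note: enzyme assay tracking NTHL1 cutting and release of a quenched double-stranded DNA oligo substrate, read as fluorescence at 594 nm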
# T2 sequence (whole entry): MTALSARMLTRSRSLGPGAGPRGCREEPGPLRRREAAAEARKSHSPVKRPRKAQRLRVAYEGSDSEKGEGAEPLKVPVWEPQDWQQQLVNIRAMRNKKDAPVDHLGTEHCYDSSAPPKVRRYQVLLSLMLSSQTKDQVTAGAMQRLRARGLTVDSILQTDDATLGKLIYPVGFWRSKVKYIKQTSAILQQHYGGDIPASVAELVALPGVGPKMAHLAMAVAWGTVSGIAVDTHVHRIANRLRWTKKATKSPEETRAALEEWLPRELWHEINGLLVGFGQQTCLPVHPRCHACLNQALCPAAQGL
# Description: Inhibition of NTHL1 by quantifying inhibition of NTHL1-mediated cleavage and dissociation of quenched duplex DNA oligonucleotides, measured as fluorescence at 594 nm.
# [5] = molecular target: Methyl-CpG-binding domain protein 4 (Homo sapiens) (UniProt O95243); conditions: Hit No;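 note: MBD4 activity read as fluorescence at 594 nm from cleavage and release of a quenched duplex DNA oligonucleotide, with APE1 coupled to incise the strand and raise turnover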
# Chain of Methyl-CpG-binding domain protein 4 (Homo sapiens) (O95243 whole entry, the tested form may be a part): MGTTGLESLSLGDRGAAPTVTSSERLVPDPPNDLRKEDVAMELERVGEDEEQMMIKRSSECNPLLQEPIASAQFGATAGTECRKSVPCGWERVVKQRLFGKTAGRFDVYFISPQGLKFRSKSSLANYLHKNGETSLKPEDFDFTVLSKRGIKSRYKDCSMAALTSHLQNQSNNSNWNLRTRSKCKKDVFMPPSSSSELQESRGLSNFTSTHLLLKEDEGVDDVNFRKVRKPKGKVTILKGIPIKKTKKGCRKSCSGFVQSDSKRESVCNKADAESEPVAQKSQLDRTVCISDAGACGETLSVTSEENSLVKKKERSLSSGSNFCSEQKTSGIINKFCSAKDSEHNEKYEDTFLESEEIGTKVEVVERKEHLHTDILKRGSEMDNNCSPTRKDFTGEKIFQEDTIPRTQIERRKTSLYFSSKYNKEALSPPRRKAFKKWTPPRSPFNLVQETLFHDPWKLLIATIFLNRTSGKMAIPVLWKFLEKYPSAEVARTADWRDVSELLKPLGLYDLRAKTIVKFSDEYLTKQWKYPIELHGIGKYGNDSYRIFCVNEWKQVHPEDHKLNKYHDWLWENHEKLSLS
# Description: Inhibition of MBD4 by quantifying inhibition of MBD4-mediated cleavage and dissociation of quenched duplex DNA oligonucleotides, measured as fluorescence at 594 nm. To generate a functional strand incision and increase turn-over this assay is coupled to APE1.
# [6] = molecular target: N-glycosylase/DNA lyase (Homo sapiens) (UniProt O15527);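 note: OGG1 cleavage of a quenched duplex DNA oligonucleotide, coupled to APE1 for strand incision, read as fluorescence at 594 nm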
# Chain of N-glycosylase/DNA lyase (Homo sapiens) (O15527 whole entry): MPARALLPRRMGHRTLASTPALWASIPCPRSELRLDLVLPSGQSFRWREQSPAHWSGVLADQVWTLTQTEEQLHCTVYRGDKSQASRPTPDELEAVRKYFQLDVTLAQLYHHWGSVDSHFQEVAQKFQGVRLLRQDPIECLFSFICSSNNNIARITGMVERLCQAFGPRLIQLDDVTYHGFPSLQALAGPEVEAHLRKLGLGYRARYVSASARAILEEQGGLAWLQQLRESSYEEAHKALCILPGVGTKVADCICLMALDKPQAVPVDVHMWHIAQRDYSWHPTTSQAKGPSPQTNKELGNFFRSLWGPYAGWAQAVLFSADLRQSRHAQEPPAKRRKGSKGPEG
# Description: Inhibition of OGG1 by quantifying inhibition of OGG1-mediated cleavage and dissociation of quenched duplex DNA oligonucleotides, measured as fluorescence at 594 nm. To generate a functional strand incision and increase turn-over this assay is coupled to APE1.
# [7] = molecular target: T3, Adenine DNA glycosylase (Homo sapiens) (UniProt Q9UIF7); conditions: Hit No;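 note: human MUTYH activity read as 594 nm fluorescence from cleavage and release of a quenched DNA duplex, coupled with APE1 for strand incision, lower signal meaning inhibition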
# T3 sequence (whole entry): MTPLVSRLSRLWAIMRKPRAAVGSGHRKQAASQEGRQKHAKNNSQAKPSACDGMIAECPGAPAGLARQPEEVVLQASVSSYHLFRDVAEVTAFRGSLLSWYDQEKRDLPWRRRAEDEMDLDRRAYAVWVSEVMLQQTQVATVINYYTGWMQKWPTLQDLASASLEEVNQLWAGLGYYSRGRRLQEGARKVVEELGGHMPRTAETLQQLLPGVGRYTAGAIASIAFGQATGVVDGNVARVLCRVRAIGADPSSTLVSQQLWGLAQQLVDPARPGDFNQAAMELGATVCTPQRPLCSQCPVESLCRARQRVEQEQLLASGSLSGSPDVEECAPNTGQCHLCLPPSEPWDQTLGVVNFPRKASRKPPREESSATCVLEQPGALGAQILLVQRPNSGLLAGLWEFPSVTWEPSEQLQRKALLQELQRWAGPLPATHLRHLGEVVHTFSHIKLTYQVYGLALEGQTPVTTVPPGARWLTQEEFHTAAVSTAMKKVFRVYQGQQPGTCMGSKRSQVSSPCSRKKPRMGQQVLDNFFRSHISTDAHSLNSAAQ
# Description: Inhibition of MUTYH by quantifying inhibition of MUTYH-mediated cleavage and dissociation of quenched duplex DNA oligonucleotides, measured as fluorescence at 594 nm. To generate a functional strand incision and increase turn-over this assay is coupled to APE1.
# [8] = molecular target: G/T mismatch-specific thymine DNA glycosylase (Homo sapiens) (UniProt Q13569); conditions: Hit No;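 note: human TDG cleavage of quenched duplex DNA oligonucleotides coupled to APE1, strand release read as fluorescence at 594 nm, inhibition of TDG activity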
# Chain of G/T mismatch-specific thymine DNA glycosylase (Homo sapiens) (Q13569 whole entry): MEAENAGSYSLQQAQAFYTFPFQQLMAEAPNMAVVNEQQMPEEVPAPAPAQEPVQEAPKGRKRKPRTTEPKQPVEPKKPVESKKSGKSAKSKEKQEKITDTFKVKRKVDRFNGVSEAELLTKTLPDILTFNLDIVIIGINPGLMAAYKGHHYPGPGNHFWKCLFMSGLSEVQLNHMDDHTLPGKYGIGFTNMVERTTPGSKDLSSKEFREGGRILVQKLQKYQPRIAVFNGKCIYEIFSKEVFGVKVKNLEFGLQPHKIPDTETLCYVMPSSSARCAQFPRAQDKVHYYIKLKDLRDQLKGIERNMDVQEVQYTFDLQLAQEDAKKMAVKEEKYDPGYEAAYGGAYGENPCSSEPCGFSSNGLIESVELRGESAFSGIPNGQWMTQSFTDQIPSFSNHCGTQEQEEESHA
# Description: Inhibition of TDG by quantifying inhibition of TDG-mediated cleavage and dissociation of quenched duplex DNA oligonucleotides, measured as fluorescence at 594 nm. To generate a functional strand incision and increase turn-over this assay is coupled to APE1.
# [9] = molecular target: DNA-3-methyladenine glycosylase (Homo sapiens) (UniProt P29372); conditions: Hit No;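 note: enzyme assay where MPG cuts a quenched duplex DNA oligonucleotide probe, paired with APE1 for strand incision and turnover, read as fluorescence at 594 nm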
# Chain of DNA-3-methyladenine glycosylase (Homo sapiens) (P29372 whole entry): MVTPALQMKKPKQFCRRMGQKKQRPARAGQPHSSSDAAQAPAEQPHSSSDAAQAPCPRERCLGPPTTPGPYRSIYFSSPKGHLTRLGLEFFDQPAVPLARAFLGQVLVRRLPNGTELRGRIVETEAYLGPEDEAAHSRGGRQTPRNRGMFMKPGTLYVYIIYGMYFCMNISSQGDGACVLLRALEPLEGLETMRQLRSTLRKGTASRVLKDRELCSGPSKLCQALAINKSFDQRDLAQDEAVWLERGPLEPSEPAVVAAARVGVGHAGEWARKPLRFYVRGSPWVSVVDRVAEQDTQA
# Description: Inhibition of MPG by quantifying inhibition of MPG-mediated cleavage and dissociation of quenched duplex DNA oligonucleotides, measured as fluorescence at 594 nm. To generate a functional strand incision and increase turn-over this assay is coupled to APE1.
# [10] = molecular target: T4, Endonuclease 8-like 2 (Homo sapiens) (UniProt Q969S2);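 note: fluorescence at 594 nm reports NEIL2 cutting and release of a quenched double-stranded DNA oligo substrate, reduced signal read as inhibition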
# T4 sequence (whole entry): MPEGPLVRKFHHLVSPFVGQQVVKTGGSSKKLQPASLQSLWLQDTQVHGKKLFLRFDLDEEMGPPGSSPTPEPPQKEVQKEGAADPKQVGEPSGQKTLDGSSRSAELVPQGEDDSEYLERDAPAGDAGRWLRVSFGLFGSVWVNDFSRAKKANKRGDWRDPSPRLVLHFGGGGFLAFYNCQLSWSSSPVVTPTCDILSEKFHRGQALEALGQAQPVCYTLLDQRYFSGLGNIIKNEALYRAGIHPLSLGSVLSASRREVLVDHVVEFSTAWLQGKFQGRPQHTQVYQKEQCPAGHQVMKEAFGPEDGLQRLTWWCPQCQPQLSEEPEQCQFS
# Description: Inhibition of NEIL2 by quantifying inhibition of NEIL2-mediated cleavage and dissociation of quenched duplex DNA oligonucleotides, measured as fluorescence at 594 nm.
# [11] = Compound Concentration 10.0 uM, Hit No
# [12] = Compound Concentration 10.0 uM, Hit Yes
# [13] = Compound Concentration 1.0 uM, Hit No
# Chain of Uracil-DNA glycosylase (Homo sapiens) (P13051 whole entry): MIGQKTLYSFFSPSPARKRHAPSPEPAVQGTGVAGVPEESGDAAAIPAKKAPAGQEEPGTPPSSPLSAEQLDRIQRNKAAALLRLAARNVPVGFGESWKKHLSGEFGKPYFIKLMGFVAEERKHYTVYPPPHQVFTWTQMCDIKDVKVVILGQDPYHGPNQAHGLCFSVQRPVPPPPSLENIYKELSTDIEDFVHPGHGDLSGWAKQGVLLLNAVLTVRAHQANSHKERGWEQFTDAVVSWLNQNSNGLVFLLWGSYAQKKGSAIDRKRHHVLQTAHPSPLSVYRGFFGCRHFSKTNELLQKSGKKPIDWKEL
"inhibition [1, 11]","inhibition [2, 11]",inhibition ([3]; Compound Concentration 10.0 uM),"inhibition [4, 11]",inhibition ([5]; Compound Concentration 10.0 uM),"inhibition [6, 11]",inhibition ([7]; Compound Concentration 10.0 uM),inhibition ([8]; Compound Concentration 10.0 uM),inhibition ([9]; Compound Concentration 10.0 uM),"inhibition [10, 11]",SMILES,further results
-8.46%,0.834%,-5.22%,12.9%,15.2%,4.23%,21.3%,16.1%,1.41%,-2.48%,CCc1cc2c(cc1CC)CC(NC[C@H](O)c1ccc(O)c3[nH]c(=O)ccc13)C2,–
1.16%,0.75%,11%,-5.21%,5.5%,-0.346%,11.7%,13.6%,22.4%,2.71%,COc1ccc(CC(=O)NCc2ccccc2-c2ccccc2C(=O)NCc2ccc(F)cc2F)cc1,–
-3.16%,0.898%,-0.127%,8.82%,16.1%,-5.15%,12.3%,24.2%,10.3%,0.414%,N[C@](CC1c2ccccc2Oc2ccccc21)(C(=O)O)[C@H]1C[C@@H]1C(=O)O,–
-4.79%,-4.5%,5.06%,-9.07%,38.1%,6.47%,40.1%,39.6%,17.4%,0.265%,O=C(O)Cn1c(C(=O)Nc2nc(-c3ccccc3Cl)cs2)cc2ccccc21,–
3.14%,6.97%,15.3%,8.82%,21.1%,3.08%,-0.703%,9.84%,18%,-9.78%,COc1cc(NC(=O)c2ccc(-c3ccc(Cl)cc3)o2)cc(OC)c1,–
-6.06%,3.86%,9.42%,-0.258%,0.275%,-1.87%,4.12%,9.09%,-4.2%,8.06%,COc1cc([N+](=O)[O-])ccc1NC(=O)c1ccccc1O,–
-9.57%,9.29%,-6.72%,8.52%,30.2%,-1.26%,38.2%,33.1%,24%,11%,CCCCc1nc2ccc(NC(=O)NC3CCCCC3)cc2n1Cc1ccc(-c2ccccc2C(=O)O)cc1,–
6.05%,6.83%,1.23%,13.8%,19.2%,-5.04%,16.3%,22.3%,7.34%,12.9%,CCn1cnc2c(-c3ccc(F)c(-c4ccc(S(=O)(=O)CC)cc4OC)c3)cnnc21,–

# Further lines, the compound ahead of its results:
SMILES,"inhibition [1, 11]","inhibition [2, 11]",inhibition ([3]; Compound Concentration 10.0 uM),"inhibition [4, 11]",inhibition ([5]; Compound Concentration 10.0 uM),"inhibition [6, 11]",inhibition ([7]; Compound Concentration 10.0 uM),inhibition ([8]; Compound Concentration 10.0 uM),inhibition ([9]; Compound Concentration 10.0 uM),"inhibition [10, 11]",further results
CNC1(C)C2CCC(C2)C1(C)C (stereo not given),-5.36%,-4.14%,1.51%,-2.73%,-0.892%,-5.59%,-4.75%,10.2%,6.27%,-4.94%,–
CCCCCN1C(=O)C2(COc3cc4c(cc32)OCO4)c2ccccc21 (stereo not given),-5.87%,0.00926%,-6.34%,18.7%,29%,1.71%,13.2%,18.1%,32.6%,0.924%,–
COc1cc2nc(N3CCN(C(=O)C4CCCO4)CC3)nc(N)c2cc1OC (stereo not given),-7.11%,13.6%,3.65%,-3.21%,17%,0.439%,19%,22.2%,11.2%,22.5%,–
CCn1cc(-c2ccnc3[nH]c(-c4cccc(CN(C)C)c4)cc23)c(-c2ccc(NC(=O)N(C)C)cc2)n1,–,-6.47%,24.3%,2.18%,22.5%,14.9%,78.6%,49%,62.9%,23.1%,"inhibition [1, 12]: 25%"
Cc1cccc(F)c1C(=O)Nc1cnc(-c2cc3c(cc2Cl)OC(F)(F)O3)cn1,-6.24%,1.79%,9.65%,8.82%,7.48%,-4.79%,6.43%,-9.45%,18.4%,6.27%,–
CC(=O)Nc1cccc(-n2c(=O)n(C3CC3)c(=O)c3c(Nc4ccc(I)cc4F)n(C)c(=O)c(C)c32)c1,–,–,–,–,–,–,–,–,–,–,"inhibition [1, 13]: 7.39%; inhibition [2, 13]: 2.25%; inhibition ([3]; Compound Concentration 1.0 uM): 18.1%; inhibition [4, 13]: -1.31%; inhibition ([5]; Compound Concentration 1.0 uM): 22.2%; inhibition [6, 13]: 8.25%; inhibition ([7]; Compound Concentration 1.0 uM): 15.8%; inhibition ([8]; Compound Concentration 1.0 uM): 45.9%; inhibition ([9]; Compound Concentration 1.0 uM): 11.7%; inhibition [10, 13]: 1.85%"
NC(N)=Nc1nc(CSCC/C(N)=N/S(N)(=O)=O)cs1,-4.9%,9.58%,-5.17%,-2.47%,6.83%,2.35%,21.8%,13.5%,11.5%,17.5%,–
COCCOCCn1nc2c(c1C)-c1c(Cl)ccc3c1c(C)c(C(=O)O)n3CCCOc1cc(cc3c(F)c(Cl)ccc13)CCc1cc(nn1C)CSC2,9.88%,-6.35%,17.3%,-0.959%,77.7%,28.8%,36%,59.9%,52.2%,5.63%,–
Cc1nc(-c2ccc(C(F)(F)F)cc2)sc1COc1ccc([C@H](CC(=O)O)c2ccon2)cc1,-5.51%,3.95%,7.09%,16.6%,20.8%,–,23.2%,27%,3.92%,2.26%,"inhibition [6, 12]: 41.1%"
Cc1ccc2nc(NCCN)c3ncc(C)n3c2c1,14.9%,–,44.2%,–,53%,47.4%,83.5%,67.6%,75.9%,–,"inhibition [2, 12]: 28.9%; inhibition [4, 12]: 43.3%; inhibition [10, 12]: 47.1%"
O=C(O)COc1cccc(-c2ocnc2-c2nc(-c3ccccc3)c(-c3ccccc3)o2)c1,-2.35%,1.64%,-6.12%,8.82%,49.9%,18.4%,65%,51%,20.4%,-0.35%,–
CCCn1c(=O)c2nc(C34CC5CC(CC3C5)C4)[nH]c2n(CCC)c1=O,-9.84%,5.88%,5%,-8.34%,16.5%,-1.3%,6.8%,14.1%,-7.5%,12.2%,–
